According to patent US20250302862A1, “SMALL RNA DRUG FOR INHIBITING ACTIVITY OF CANCER CELLS” (Institute of Basic Medical Sciences Chinese Academy of …, priority 2022, published 2025):

Tests used:
[1] = tested on: primary lung cancer Kras^LSL-G12Dp53^fl/fl (KP) mouse model; assay: Tumor burden of mice with primary lung cancer (HE lung sections); format: in vivo; details: 10 nmol daily by gavage for one month, sphingosine(d18:1) delivery system, HE-stained left lung section, vs NC group
Description: The mouse model of primary lung cancer was Kras^LSL-G12Dp53^fl/fl (KP).
Mice were weighed and assigned to the negative control group (NC group) and HQi-sRNA-2 group randomly. The NC group was the negative control, in which a sphingosine(d18:1)-NC-sRNA herbal medicine delivery system was constructed from NC-sRNA. The HQi-sRNA-2 group was the experimental group, in which a sphingosine(d18:1)-HQi-sRNA-2 herbal medicine delivery system was constructed from HQi-sRNA-2.
The herbal medicine delivery system was constructed by heating and mixing 10 nmol of sRNA, 100 ug of sphingosine(d18:1) and 300 ul of sterile enzyme-free water in a water bath at 90° C. for 15 minutes.
Each mouse with a uniform body weight was dosed by gavage. Each mouse was given 10 nmol of HQi-sRNA-2 mimic daily by gavage for one month.
The lungs of mice were collected to prepare pathological sections. The left lung was collected and sliced at the largest surface for every mouse, and stained with HE. The area of tumor in the whole pathological section was counted, the tumor burden was calculated, and statistical analysis was performed.
Mice were weighed and assigned to the negative control group (NC group), MDM-sRNA-39 group and MDM-sRNA-163 group randomly. The NC group was the negative control, in which a sphingosine(d18:1)-NC-sRNA herbal medicine delivery system was constructed from NC-sRNA. The MDM-sRNA-39 group was an experimental group, in which a sphingosine(d18:1)-MDM-sRNA-39 herbal medicine delivery system was constructed from MDM-sRNA-39. The MDM-sRNA-163 group was an experimental group, in which a sphingosine(d18:1)-MDM-sRNA-163 herbal medicine delivery system was constructed from MDM-sRNA-163.

A549 cells = assay: Concentration-dependent proliferation inhibition, MTS; format: cell-based, human; details: concentration gradient, MTS 48 h after transfection
Method: (§1) 1) H460 and A549 cells with a cell density of more than 90% in 10 cm^2 dishes were plated in 96-well plates according to the cell growth rate, and transfected after 12 h, and the groups (3 wells per group) were divided as follows: • BLANK group: 20 uL of opti-MEM • negative control group (NC group) and experimental group: • A. 10 uL of opti-MEM and 0.2 uL of iMax were mixed well for 5 min • B. 10 uL of opti-MEM and small RNA were mixed well (the concentration gradient of H460 cell experimental group was set as: 0.01 noml/L, 0.03 noml/L, 0.1 noml/L, 0.39 noml/L, 0.78 noml/L, 1.56 noml/L, 3.125 noml/L, 6.25 noml/L, 12.5 noml/L, 25 noml/L, 50 noml/L, 100 noml/L; the concentration gradient of A549 cell experimental group was set as: 0.01 noml/L, 0.03 noml/L, 0.1 noml/L, 0.3 noml/L, 1 noml/L, 3 noml/L, 10 noml/L, 30 noml/L, 100 noml/L, 300 noml/L; the final concentration of sRNA in NC group was 100 noml/L) • C. solution A and solution B were mixed well and let stand for 15 min, and then was added at a 20 ul/well system • Note: 100 uL of nuclease-free water was added to 2 nmol of small RNA dry powder for dissolution at a storage concentration of 20 umol/L
(§2) 2) Detection of cell viability: MTS detection was performed after 48 h.
(§3) Formulation of MTS detection solution was as follows: opti-MEM:MTS A solution:MTS B solution=100:20:1. After removing the supernatant, 100 uL of MTS detection solution was added to each well and incubated for 0.5-2 h. Absorbance values at wavelengths of 490 nm and 630 nm were measured in a microplate reader.
(§4) 1) H460 and A549 cells with a cell density of more than 90% in 10 cm^2 dishes were plated in 96-well plates according to the cell growth rate, and transfected after 12 h, and the groups (3 wells per group) were divided as follows: • blank control group: 20 uL of opti-MEM • negative control group (NC group) and experimental group: • A. 10 uL of opti-MEM and 2 uL of iMax were mixed well for 5 min • B. 10 uL of opti-MEM and small RNA were mixed well (the concentration gradient of H460 cell experimental group was set as: 0.01 noml/L, 0.03 nmol/L, 0.1 noml/L, 0.3 noml/L, 1 noml/L, 3 noml/L, 10 noml/L, 30 noml/L, 100 noml/L, 300 noml/L, 400 noml/L, 500 noml/L; the concentration gradient of A549 cell experimental group was set as: 0.01 noml/L, 0.03 nmol/L, 0.1 noml/L, 0.3 noml/L, 1 noml/L, 3 noml/L, 10 noml/L, 30 noml/L, 100 noml/L, 300 noml/L; the final concentration of sRNA in NC group was 100 noml/L) • C. solution A and solution B were mixed well and let stand for 15 min, and then was added to each well at a 20 uL system • positive group: the concentration of paclitaxel was adjusted to 100 nmol/L • Note: 100 uL of nuclease-free water was added to 2 nmol of small RNA dry powder for dissolution at a storage concentration of 20 umol/L
(§5) 1) H460 and A549 cells with a cell density of more than 90% in 10 cm^2 dishes were plated in 96-well plates according to the cell growth rate, and transfected after 12 h, and the groups (3 wells per group) were divided as follows: • blank control group: 20 uL of opti-MEM • negative control group (NC group) and experimental group: • A. 10 uL of opti-MEM and 0.2 uL of iMax were mixed well for 5 min • B. 10 uL of opti-MEM and small RNA were mixed well (the concentration gradient of H460 cell experimental group was set as: 0.1 noml/L, 0.3 noml/L, 1 noml/L, 3 noml/L, 10 noml/L, 30 noml/L, 100 noml/L, 300 noml/L; the concentration gradient of A549 cell experimental group was set as: 0.01 noml/L, 0.03 nmol/L, 0.1 noml/L, 0.3 noml/L, 1 noml/L, 3 noml/L, 10 noml/L, 30 noml/L, 100 noml/L, 300 noml/L; the final concentration of sRNA in NC group was 100 noml/L) • C. solution A and solution B were mixed well and let stand for 15 min, and then a 20 uL system was added at a 20 uL system • Note: 100 uL of nuclease-free water was added to 2 nmol of small RNA dry powder for dissolution at a storage concentration of 20 umol/L

H460 cells = assay: as above; format: cell-based, human; details: concentration gradient, MTS 48 h after transfection
Method: as §1, §2, §3, §4, §5

Row | Substance | tumor burden of mice with primary lung cancer [1] | proliferation-inhibiting function (cell activity, MTS) (A549 cells) | proliferation-inhibiting function (cell activity, MTS) (H460 cells)
1 | HQi-sRNA-2: small RNA derived from Scutellaria baicalensis, sequence AUGGUUCGAUUCCGGAGAGGG (listed as RNA, chemistry not given here) | significantly reduced | concentration-dependent | concentration-dependent
2 | MDM-sRNA-163: small RNA derived from Maytenus hookeri, sequence UGACUCUAGUCCGACUUUGUGAAAUGACU (listed as RNA, chemistry not given here) | significantly reduced | concentration-dependent | concentration-dependent
3 | MDM-sRNA-39: small RNA derived from Maytenus hookeri, sequence GGGAUUGUAGUUCAAUUGGUCAGAGCACC (listed as RNA, chemistry not given here) | significantly reduced | concentration-dependent | concentration-dependent
